Test results taken from patent US11780834B2, “Solid forms of 3-((1R,3R)-1-(2,6-difluoro-4-((1-(3-fluoropropyl)azetidin-3-yl)amino)phenyl)-3-methyl-1,3,4,9-tetrahydro-2H-pyrido[3,4-b]indol-2-yl)-2,2-difluoropropan-1-ol and processes for preparing fused tricyclic compounds comprising a substituted phenyl or pyridinyl moiety, including methods …” (Hoffmann-La Roche Inc., priority 2018, dated 2023).
Values after ≈ are worked out from the molar mass of the structure shown.

What was measured:
[1] = Equilibrium solubility (24 hrs) of Form B and Form D in aw 0.2/0.4 EtOH:H2O systems; type: physicochemical; conditions: RT, concentration of freebase in filtrate; for solubility at 24 hrs: organic solvent or mixture, thermodynamic from solid
Method: Solubility Measurement of Form B and D. To further confirm the thermodynamic stability relationship between Form B and Form D under aw of 0.2 and 0.4 conditions at RT, equilibrium solubility under the conditions set forth in Table 35 was collected.
Solids of anhydrous Form B and hydrous Form D were suspended in 0.5 mL of target solvent system (aw=0.2/0.4), respectively, and magnetically stirred for 24 hrs (750 rpm). The suspension was filtered and the concentration of freebase in the filtrate was tested.

[2] = Water sorption analysis / DVS (hygroscopicity); type: physicochemical; conditions: for Hygroscopicity (in words): water sorption / DVS at 25° C.
Method: Water sorption analysis. About 5-6 mg of powder sample was placed in the sample pan of an automated water sorption analyzer (Q5000SA, TA instruments, New Castle, DE) at 25° C. and a nitrogen flow rate of 200 mL/min. […] This was followed by a progressive decrease in RH in decrements of 10% back to 0% RH, using the same protocol.

[3] = test system: xenograft models of ER-positive breast cancer; conditions: dosed according to a clinically relevant dosing scheme
[4] = Equilibrium solubility (17 hrs) of Form B and Form F in EtOH; type: physicochemical; conditions: concentration of freebase in filtrate
Source text: Phase transformation. Crystallization of Compound B from solvents such as ethyl acetate, ethanol, acetone or and aqueous mixture of these may result in the formation of one more of the following forms: anhydrous Form B, anhydrous Form F, monohydrate Form D, and acetone solvate Form A. The XRPD patterns of these four solid forms are shown in FIG. 21. It was therefore important to know the physical stability of these forms to determine the complete phase transformation landscape and control crystallization to obtain the desired Form B. Owing to the close proximity of melting points of Forms F and B (160-164° C. onset for Form F vs 166-175° C. for Form B), form conversion was slow in competitive slurry bridging experiments at RT and a mixture of both forms was obtained.
Equilibrium Solubility Measurement of Anhydrous Form B and F. To further determine the thermodynamic stability between Form B and F, equilibrium solubility measurement experiments were conducted in EtOH at 25° C., 35° C. and 50° C., respectively. Detailed procedures are summarized as follows: solids of Form B and F were suspended in 0.4 mL of EtOH at targeted temperatures and magnetically stirred for 17 hrs (750 rpm). After centrifugation, the concentration and HPLC purity of freebase in the filtrate was tested. The crystal form of remaining solids was checked by XRPD.

[5] = Stress stability of solid forms at elevated temperature and humidity (XRPD, impurities); type: physicochemical
Method: Preliminary stress stability analysis of Compound B Form B. The XRPD patterns of Compound A salts (fumarate and tartrate) exposed to 40° C./75% RH for one month under open conditions.
XRPD of one-month stability sample.

[6] = Solubility at 37° C. (summary of solid forms); type: physicochemical; conditions: medium not stated
[7] = Compression analysis of Compound B Form B compacts; type: physicochemical; conditions: 250 mg compacts of neat compound
[8] = Hydrate-anhydrate stability, slurry competition under various water activity at RT; type: physicochemical
Method: Critical Water Activity Determination between Form B and D. To determine critical water activity between anhydrous Form B and hydrous Form D, slurry competition was performed in various water activity conditions at RT as listed in Table 34. A mixture of Form B and D with equal mass ratio was suspended in saturated EtOH-water (with various aw) solutions of Form B and then magnetically stirred at RT. After slurry for about 7˜36 days, remaining solids were isolated for XRPD characterization.

[9] = Approximate solubility of freebase Compound A in 16 solvents at RT; type: physicochemical
Method: Polymorph Screening. The solubility of freebase Compound A was estimated in 16 solvents at RT. (Table 8). Polymorph screening experiments were performed using different solution crystallization or solid phase transition methods.

Question: For `C[C@@H]1Cc2c([nH]c3ccccc23)[C@@H](c2c(F)cc(NC3CN(CCCF)C3)cc2F)N1CC(F)(F)CO` [Compound B Form D], which “Solubility (equilibrium)” value ([1]; aw 0.2, EtOH:H2O (97:3, v/v)) is on record?
Answer: The value was 21.7 mg/mL (≈ 41.5 mM).

Question: What about the “Solubility (equilibrium)” value ([1]; aw 0.4, EtOH:H2O (92.7:7.3, v/v)) of the same compound?
Answer: Its value is 18.6 mg/mL (≈ 35.6 mM).

Question: And the “Water uptake (DVS, desorption)” value ([2]; 20% RH, 25° C.)?
Answer: The value was 2.25%.

Question: What about the “Water uptake (DVS, desorption)” value ([2]; 80% RH, 25° C.) of the same compound?
Answer: Its value is 2.72%.

Question: For `C[C@@H]1Cc2c([nH]c3ccccc23)[C@@H](c2c(F)cc(NC3CN(CCCF)C3)cc2F)N1CC(F)(F)CO` [Compound C Form 1], which “Hygroscopicity at 95% RH” value ([2]; 95% RH) is on record?
Answer: Its value is less than 1.5%.

Question: For `C[C@]12CC[C@@H]3c4ccc(O)cc4C[C@@H](CCCCCCCCC[S+]([O-])CCCC(F)(F)C(F)(F)F)[C@H]3[C@@H]1CC[C@@H]2O` (stereo partly drawn) [Fulvestrant, reference compound], which “Efficacy relative to Compound B” value [3] is on record?
Answer: The value was “less efficacious than Compound B”.

Question: With `C[C@@H]1Cc2c([nH]c3ccccc23)[C@@H](c2c(F)cc(NC3CN(CCCF)C3)cc2F)N1CC(F)(F)CO` [Compound B Form F] as the compound, how does the “Solubility (equilibrium)” value ([4]; 25° C.) read?
Answer: The value was 0.26 mg/mL (≈ 0.498 mM).

Question: What about the “Solubility (equilibrium)” value ([4]; 35° C.) of the same compound?
Answer: Its value is 0.36 mg/mL (≈ 0.689 mM).

Question: And the “Solubility (equilibrium)” value ([4]; 50° C.)?
Answer: The value was 0.82 mg/mL (≈ 1.57 mM).

Question: And the “Water uptake (DVS)” value ([2]; up to 80% RH, 25° C.)?
Answer: The value was roughly 1.9%.

Question: What about the “Hygroscopicity (in words)” value [2] of the same compound?
Answer: The value was “slightly hygroscopic”.

Question: Which results are given for `C[C@@H]1Cc2c([nH]c3ccccc23)[C@@H](c2c(F)cc(NC3CN(CCCF)C3)cc2F)N1CC(F)(F)CO` [Compound B Form B]?
Answer: solubility at 24 hrs ([1]; EtOH:H2O (92.7:7.3, v/v), aw 0.4, 25 °C, aw 0.4, EtOH:H2O (92.7:7.3, v/v)): 27.5 mg/mL (≈ 52.6 mM); solubility at 24 hrs ([1]; EtOH:H2O (97:3, v/v), aw 0.2, 25 °C, aw 0.2, EtOH:H2O (97:3, v/v)): 24.4 mg/mL (≈ 46.7 mM); Solid form (XRPD) after accelerated stability ([5]; 30° C./65% RH and 40° C./75% RH, up to 6 months, open): remains unchanged; Solid form (XRPD) after stress stability ([5]; 40° C./75% RH, one month, open): remains unchanged; Solubility at 37° C. [6]: about 5.9 mg/mL; Solid form upon compression (SSNMR, XRPD) [7]: remains unchanged; solubility at 17 hrs ([4]; 35 °C, organic solvent or mixture, thermodynamic from solid): 0.3 mg/mL (≈ 0.574 mM); solubility at 17 hrs ([4]; 50 °C, organic solvent or mixture, thermodynamic from solid): 0.49 mg/mL (≈ 0.938 mM); solubility at 17 h ([4]; ethanol, 25 °C, organic solvent or mixture, thermodynamic from solid): 0.23 mg/mL (≈ 0.44 mM); Hygroscopicity (in words) [2]: slightly hygroscopic; Water activity (aw) at which the form remained stable against hydrate Form D [8]: < 0.2; Water activity (aw) up to which the form was kinetically stable ([8]; slurry bridging experiments up to 36 days): ≤ 0.4

Question: For `C[C@@H]1Cc2c([nH]c3ccccc23)[C@@H](c2c(F)cc(NC3CN(CCCF)C3)cc2F)N1CC(F)(F)CO` [Compound A, 3-((1R,3R)-1-(2,6-difluoro-4-((1-(3-fluoropropyl)azetidin-3-yl)amino)phenyl)-3-methyl-1,3,4,9-tetrahydro-2H-pyrido[3,4-b]indol-2-yl)-2,2-difluoropropan-1-ol], which solubility [6] is on record?
Answer: The solubility was roughly 6.6 mg/mL (≈ 12.6 mM).

Question: And the solubility ([9]; ethanol, organic solvent or mixture, EtOH)?
Answer: The solubility was greater than 60 mg/mL.

Question: What about the solubility ([9]; organic solvent or mixture, 1,4-Dioxane) of the same compound?
Answer: The solubility was greater than 60 mg/mL.

Question: And the solubility ([9]; organic solvent or mixture, 2-propanol)?
Answer: Its solubility is greater than 60 mg/mL.

Question: What about the solubility ([9]; organic solvent or mixture, ACN) of the same compound?
Answer: The solubility was greater than 60 mg/mL.

Question: And the solubility ([9]; organic solvent or mixture, Acetone)?
Answer: Its solubility is greater than 60 mg/mL.

Question: And the solubility ([9]; organic solvent or mixture, CPME)?
Answer: Its solubility is greater than 44 mg/mL.

Question: What about the solubility ([9]; organic solvent or mixture, Cyclohexanes) of the same compound?
Answer: Its solubility is less than 1.9 mg/mL.

Question: And the solubility ([9]; organic solvent or mixture, EtOAc)?
Answer: Its solubility is greater than 60 mg/mL.

Question: And the solubility ([9]; organic solvent or mixture, IPAc)?
Answer: The solubility was greater than 60 mg/mL.

Question: And the solubility ([9]; organic solvent or mixture, Iso-butanol)?
Answer: Its solubility is greater than 40 mg/mL.

Question: And the solubility ([9]; organic solvent or mixture, MIBK)?
Answer: The solubility was greater than 60 mg/mL.

Question: What about the solubility ([9]; organic solvent or mixture, MTBE) of the same compound?
Answer: Its solubility is greater than 60 mg/mL.

Question: And the solubility ([9]; organic solvent or mixture, MeTHF)?
Answer: The solubility was greater than 60 mg/mL.

Question: What about the solubility ([9]; organic solvent or mixture, Toluene) of the same compound?
Answer: Its solubility is greater than 60 mg/mL.

Question: What about the solubility ([9]; organic solvent or mixture, n-Heptane) of the same compound?
Answer: Its solubility is less than 2.1 mg/mL.

Question: And the solubility ([9]; water, H2O)?
Answer: The solubility was less than 1.9 mg/mL.

Question: For `C[C@@H]1Cc2c([nH]c3ccccc23)[C@@H](c2c(F)cc(NC3CN(CCCF)C3)cc2F)N1CC(F)(F)CO` [Compound C], which “Impurities after stress stability” value ([5]; 40° C./75% RH, one month) is on record?
Answer: Its value is 0.18%.

Question: What about the “Solid form (XRPD) after stress stability” value ([5]; 40° C./75% RH, one month, open) of the same compound?
Answer: Its value is “did not change”.
